Source: ChEMBL document CHEMBL5543127, “Design, Synthesis, and Biological Evaluation of 2-Phenoxyalkylhydrazide Benzoxazole Derivatives as Quorum Sensing Inhibitors with Strong Antibiofilm Effect” (J Med Chem, 2024)
Values after ≈ are worked out from the molar mass of the structure shown. Active and inactive are the calls of the source. No cut-off for these calls is given here.

Legend:
Bacillus subtilis = assay: Anti-microbial activity against Bacillus subtilis ATCC9372 incubated for 20 hrs By CLSI based micro-dilution method; assay type: functional
Bacillus pumilus = assay: Anti-microbial activity against Bacillus pumilus CMCC63202 incubated for 20 hrs By CLSI based micro-dilution method; assay type: functional
Staphylococcus aureus [1] = assay: Anti-microbial activity against erythromycin-susceptible Staphylococcus aureus ATCC25923 incubated for 20 hrs By CLSI based micro-dilution method; assay type: functional
Staphylococcus aureus [2] = assay: Anti-microbial activity against methicillin-resistant Staphylococcus aureus ATCC43300 incubated for 20 hrs By CLSI based micro-dilution method; assay type: functional
Pseudomonas aeruginosa [3] = assay: Anti-microbial activity against penicillin-susceptible Pseudomonas aeruginosa 27853 incubated for 20 hrs By CLSI based micro-dilution method; assay type: functional
Escherichia coli = assay: Anti-microbial activity against penicillin-susceptible Escherichia coli ATCC25922 incubated for 20 hrs By CLSI based micro-dilution method; assay type: functional
Pseudomonas aeruginosa [4] = assay: Anti-microbial activity against Pseudomonas aeruginosa PAO1 incubated for 20 hrs By CLSI based micro-dilution method; assay type: functional
Pseudomonas aeruginosa [5] = assay: Anti-virulence activity against logarithmic growth phase Pseudomonas aeruginosa PAO1 assessed as inhibition of Rhamnolipid production at 102.4 microg/ml measured after 24 hrs; assay type: functional
[6] = Inhibition of quorum sensing system in Pseudomonas aeruginosa PAO1 at logarithmic growth period assessed as inhibition of pyocyanin production at 102.4 microg/ml incubated for 18 hrs by pyocyanin inhibition assay; details: dose 102.4 µg/ml
Pseudomonas aeruginosa [7] = assay: Antibacterial activity against Pseudomonas aeruginosa PAO1 at logarithmic growth phase assessed as growth inhibition at 153.6 microg/ml measured upto 25 hrs by growth curve assay; assay type: functional, organism-based; details: dose 153.6 µg/ml
Pseudomonas aeruginosa [8] = assay: Inhibition of protease in logarithmic growth phase Pseudomonas aeruginosa PAO1 assessed as inhibition rate at 102.4 microg/ml measured after 32 hrs; details: dose 102.4 µg/ml
Pseudomonas aeruginosa [9] = assay: Antibiofilm activity against logarithmic growth phase Pseudomonas aeruginosa PAO1 assessed as inhibition of biofilm formation at 16 microg/ml incubated for 20 hrs by crystal violet staining based analysis; assay type: functional; details: for inhibition: dose 16.0 µg/ml
Pseudomonas aeruginosa [10] = assay: Antibiofilm activity against logarithmic growth phase Pseudomonas aeruginosa PAO1 assessed as inhibition of biofilm formation at 32 microg/ml incubated for 20 hrs by crystal violet staining based analysis; assay type: functional
Pseudomonas aeruginosa [11] = assay: Induction of anti-bacterial effect in Pseudomonas aeruginosa PAO1 assessed as synergistic effect by measuring reduction in bacterial survival in presence of ciprofloxacin measured after 24 hrs incubation; assay type: functional, organism-based; details: dose 8-128 µg/ml
Pseudomonas aeruginosa [12] = assay: Induction of anti-bacterial effect in Pseudomonas aeruginosa PAO1 assessed as synergistic effect by measuring reduction in bacterial survival in presence of clarithromycin measured after 24 hrs incubation; assay type: functional, organism-based; details: dose 8-128 µg/ml
Erythrocyte = assay: Hemolytic activity in mouse RBC isolated from eye ball assessed as hemolysis at 256 microg/ml incubated for 1 hr; assay type: toxicity, cell-based; details: dose 256 µg/ml
Pseudomonas aeruginosa [13] = assay: Antibacterial activity against Pseudomonas aeruginosa 27853 at logarithmic growth phase assessed as growth inhibition at 153.6 microg/ml measured upto 25 hrs by growth curve assay; assay type: functional, organism-based; details: dose 153.6 µg/ml

O=C1C=C(Br)/C(=C\Br)O1
MIC (Bacillus subtilis): 64 µg/mL (≈ 252 µM) | MIC (Bacillus pumilus): 256 µg/mL (≈ 1010 µM) | MIC (Staphylococcus aureus [1]): 32 µg/mL (≈ 126 µM) | MIC (Staphylococcus aureus [2]): 128 µg/mL (≈ 504 µM) | MIC (Pseudomonas aeruginosa [3]): 256 µg/mL (≈ 1010 µM) | MIC (Escherichia coli): 256 µg/mL (≈ 1010 µM) | MIC (Pseudomonas aeruginosa [4]): 128 µg/mL (≈ 504 µM) | inhibition at 102.4 µg/mL (Pseudomonas aeruginosa [5]): 44.9%

O=C(CCCOc1ccc(C(F)(F)F)cc1)NNc1nc2ccccc2o1
MIC (Bacillus subtilis): 512 µg/mL (≈ 1350 µM) | MIC (Bacillus pumilus): > 512 µg/mL | MIC (Staphylococcus aureus [1]): 256 µg/mL (≈ 675 µM) | MIC (Staphylococcus aureus [2]): 256 µg/mL (≈ 675 µM) | MIC (Pseudomonas aeruginosa [3]): 256 µg/mL (≈ 675 µM) | MIC (Escherichia coli): > 512 µg/mL | MIC (Pseudomonas aeruginosa [4]): > 512 µg/mL | inhibition [6]: inactive | Activity (Pseudomonas aeruginosa [7]): inactive | inhibition (Pseudomonas aeruginosa [8]): 30% | inhibition at 102.4 µg/mL (Pseudomonas aeruginosa [5]): > 40% | inhibition (Pseudomonas aeruginosa [9]): Active | inhibition at 32 µg/mL (Pseudomonas aeruginosa [10]): > 25.4% | Activity (Pseudomonas aeruginosa [11]): Dose-Dependent Effect | Activity (Pseudomonas aeruginosa [12]): Dose-Dependent Effect | Activity (Erythrocyte): Non-Toxic | Activity (Pseudomonas aeruginosa [13]): inactive

COc1ccc(OCCCCC(=O)NNc2nc3ccccc3o2)cc1
MIC (Bacillus subtilis): 512 µg/mL (≈ 1440 µM) | MIC (Bacillus pumilus): > 512 µg/mL | MIC (Staphylococcus aureus [1]): 512 µg/mL (≈ 1440 µM) | MIC (Staphylococcus aureus [2]): > 512 µg/mL | MIC (Pseudomonas aeruginosa [3]): 512 µg/mL (≈ 1440 µM) | MIC (Escherichia coli): > 512 µg/mL | MIC (Pseudomonas aeruginosa [4]): > 512 µg/mL | inhibition [6]: Active | inhibition (Pseudomonas aeruginosa [8]): 14.6% | inhibition at 102.4 µg/mL (Pseudomonas aeruginosa [5]): 52.1% | inhibition (Pseudomonas aeruginosa [9]): Active | inhibition at 32 µg/mL (Pseudomonas aeruginosa [10]): > 25.4% | Activity (Pseudomonas aeruginosa [11]): Dose-Dependent Effect | Activity (Pseudomonas aeruginosa [12]): Dose-Dependent Effect | Activity (Erythrocyte): Non-Toxic

Cc1cccc2sc(NNC(=O)CCCCOc3ccc(F)cc3)nc12
MIC (Bacillus subtilis): 512 µg/mL (≈ 1370 µM) | MIC (Bacillus pumilus): 512 µg/mL (≈ 1370 µM) | MIC (Staphylococcus aureus [1]): 512 µg/mL (≈ 1370 µM) | MIC (Staphylococcus aureus [2]): 512 µg/mL (≈ 1370 µM) | MIC (Pseudomonas aeruginosa [3]): > 512 µg/mL | MIC (Escherichia coli): > 512 µg/mL | MIC (Pseudomonas aeruginosa [4]): > 512 µg/mL | inhibition [6]: Active | Activity (Pseudomonas aeruginosa [7]): inactive | inhibition (Pseudomonas aeruginosa [8]): > 20% | inhibition (Pseudomonas aeruginosa [9]): Active | inhibition at 32 µg/mL (Pseudomonas aeruginosa [10]): > 25.4% | Activity (Pseudomonas aeruginosa [11]): Dose-Dependent Effect | Activity (Pseudomonas aeruginosa [12]): Dose-Dependent Effect | Activity (Pseudomonas aeruginosa [13]): inactive

Cc1ccc(C(=O)NNc2nc3ccccc3s2)cc1
MIC (Bacillus subtilis): 512 µg/mL (≈ 1810 µM) | MIC (Bacillus pumilus): 256 µg/mL (≈ 903 µM) | MIC (Staphylococcus aureus [1]): 512 µg/mL (≈ 1810 µM) | MIC (Staphylococcus aureus [2]): 256 µg/mL (≈ 903 µM) | MIC (Pseudomonas aeruginosa [3]): 512 µg/mL (≈ 1810 µM) | MIC (Escherichia coli): > 512 µg/mL | MIC (Pseudomonas aeruginosa [4]): > 512 µg/mL | inhibition [6]: 62.8% | Activity (Pseudomonas aeruginosa [7]): inactive | inhibition (Pseudomonas aeruginosa [8]): > 20% | inhibition (Pseudomonas aeruginosa [9]): Active | inhibition at 32 µg/mL (Pseudomonas aeruginosa [10]): > 25.4% | Activity (Pseudomonas aeruginosa [11]): Dose-Dependent Effect | Activity (Pseudomonas aeruginosa [12]): Dose-Dependent Effect | Activity (Erythrocyte): Non-Toxic | Activity (Pseudomonas aeruginosa [13]): inactive

O=C(CCCCOc1ccc(F)cc1)NNc1nc2ccc(Cl)cc2o1
MIC (Bacillus subtilis): 512 µg/mL (≈ 1360 µM) | MIC (Bacillus pumilus): 256 µg/mL (≈ 678 µM) | MIC (Staphylococcus aureus [1]): 512 µg/mL (≈ 1360 µM) | MIC (Staphylococcus aureus [2]): 256 µg/mL (≈ 678 µM) | MIC (Pseudomonas aeruginosa [3]): > 512 µg/mL | MIC (Escherichia coli): > 512 µg/mL | MIC (Pseudomonas aeruginosa [4]): > 512 µg/mL | inhibition [6]: Active | inhibition (Pseudomonas aeruginosa [8]): inactive | inhibition at 102.4 µg/mL (Pseudomonas aeruginosa [5]): > 40% | inhibition (Pseudomonas aeruginosa [9]): Active | inhibition at 32 µg/mL (Pseudomonas aeruginosa [10]): > 25.4%

O=C(COc1ccc(Cl)cc1)NNc1nc2ccccc2o1
MIC (Bacillus subtilis): 512 µg/mL (≈ 1610 µM) | MIC (Bacillus pumilus): > 512 µg/mL | MIC (Staphylococcus aureus [1]): 512 µg/mL (≈ 1610 µM) | MIC (Staphylococcus aureus [2]): 256 µg/mL (≈ 806 µM) | MIC (Pseudomonas aeruginosa [3]): 512 µg/mL (≈ 1610 µM) | MIC (Escherichia coli): > 512 µg/mL | MIC (Pseudomonas aeruginosa [4]): > 512 µg/mL | inhibition [6]: 46.9% | Activity (Pseudomonas aeruginosa [7]): inactive | inhibition (Pseudomonas aeruginosa [8]): 10% | inhibition at 16 µg/mL (Pseudomonas aeruginosa [9]): > 50% | inhibition at 32 µg/mL (Pseudomonas aeruginosa [10]): > 25.4% | Activity (Pseudomonas aeruginosa [11]): Dose-Dependent Effect | Activity (Pseudomonas aeruginosa [12]): Dose-Dependent Effect | Activity (Pseudomonas aeruginosa [13]): inactive

O=C(CCCCOc1ccc(Cl)cc1)NNc1nc2ccc(Cl)cc2o1
MIC (Bacillus subtilis): 512 µg/mL (≈ 1300 µM) | MIC (Bacillus pumilus): 256 µg/mL (≈ 649 µM) | MIC (Staphylococcus aureus [1]): 256 µg/mL (≈ 649 µM) | MIC (Staphylococcus aureus [2]): 256 µg/mL (≈ 649 µM) | MIC (Pseudomonas aeruginosa [3]): > 512 µg/mL | MIC (Escherichia coli): > 512 µg/mL | MIC (Pseudomonas aeruginosa [4]): > 512 µg/mL | inhibition [6]: Active | inhibition (Pseudomonas aeruginosa [8]): inactive | inhibition at 102.4 µg/mL (Pseudomonas aeruginosa [5]): > 40% | inhibition (Pseudomonas aeruginosa [9]): Active | inhibition at 32 µg/mL (Pseudomonas aeruginosa [10]): > 25.4% | Activity (Pseudomonas aeruginosa [11]): Dose-Dependent Effect | Activity (Pseudomonas aeruginosa [12]): Dose-Dependent Effect

O=C(NNc1nc2ccccc2s1)c1ccccc1F
MIC (Bacillus subtilis): 512 µg/mL (≈ 1780 µM) | MIC (Bacillus pumilus): 512 µg/mL (≈ 1780 µM) | MIC (Staphylococcus aureus [1]): > 512 µg/mL | MIC (Staphylococcus aureus [2]): > 512 µg/mL | MIC (Pseudomonas aeruginosa [3]): 512 µg/mL (≈ 1780 µM) | MIC (Escherichia coli): > 512 µg/mL | MIC (Pseudomonas aeruginosa [4]): > 512 µg/mL | inhibition [6]: 62.8% | Activity (Pseudomonas aeruginosa [7]): inactive | inhibition (Pseudomonas aeruginosa [8]): > 20% | inhibition (Pseudomonas aeruginosa [9]): Active | inhibition at 32 µg/mL (Pseudomonas aeruginosa [10]): > 25.4% | Activity (Pseudomonas aeruginosa [11]): Dose-Dependent Effect | Activity (Pseudomonas aeruginosa [12]): Dose-Dependent Effect | Activity (Erythrocyte): Non-Toxic | Activity (Pseudomonas aeruginosa [13]): inactive

O=C(CCCOc1cccc(C(F)(F)F)c1)NNc1nc2ccccc2o1
MIC (Bacillus subtilis): 512 µg/mL (≈ 1350 µM) | MIC (Bacillus pumilus): > 512 µg/mL | MIC (Staphylococcus aureus [1]): 256 µg/mL (≈ 675 µM) | MIC (Staphylococcus aureus [2]): 512 µg/mL (≈ 1350 µM) | MIC (Pseudomonas aeruginosa [3]): 256 µg/mL (≈ 675 µM) | MIC (Escherichia coli): > 512 µg/mL | MIC (Pseudomonas aeruginosa [4]): > 512 µg/mL | inhibition [6]: inactive | Activity (Pseudomonas aeruginosa [7]): inactive | inhibition (Pseudomonas aeruginosa [8]): 30% | inhibition at 102.4 µg/mL (Pseudomonas aeruginosa [5]): > 40% | inhibition (Pseudomonas aeruginosa [9]): Active | inhibition at 32 µg/mL (Pseudomonas aeruginosa [10]): > 25.4% | Activity (Pseudomonas aeruginosa [11]): Dose-Dependent Effect | Activity (Pseudomonas aeruginosa [12]): Dose-Dependent Effect | Activity (Pseudomonas aeruginosa [13]): inactive

O=C(CCCCOc1ccc(Cl)cc1)NNc1nc2ccccc2s1
MIC (Bacillus subtilis): > 512 µg/mL | MIC (Bacillus pumilus): 256 µg/mL (≈ 681 µM) | MIC (Staphylococcus aureus [1]): 256 µg/mL (≈ 681 µM) | MIC (Staphylococcus aureus [2]): 512 µg/mL (≈ 1360 µM) | MIC (Pseudomonas aeruginosa [3]): > 512 µg/mL | MIC (Escherichia coli): > 512 µg/mL | MIC (Pseudomonas aeruginosa [4]): > 512 µg/mL | inhibition [6]: Active | Activity (Pseudomonas aeruginosa [7]): inactive | inhibition at 102.4 µg/mL (Pseudomonas aeruginosa [5]): > 40% | inhibition (Pseudomonas aeruginosa [9]): Active | inhibition at 32 µg/mL (Pseudomonas aeruginosa [10]): > 25.4% | Activity (Pseudomonas aeruginosa [13]): inactive

COc1ccc(OCCCC(=O)NNc2nc3ccccc3o2)cc1
MIC (Bacillus subtilis): 512 µg/mL (≈ 1500 µM) | MIC (Bacillus pumilus): 512 µg/mL (≈ 1500 µM) | MIC (Staphylococcus aureus [1]): 64 µg/mL (≈ 187 µM) | MIC (Staphylococcus aureus [2]): 128 µg/mL (≈ 375 µM) | MIC (Pseudomonas aeruginosa [3]): 128 µg/mL (≈ 375 µM) | MIC (Escherichia coli): > 512 µg/mL | MIC (Pseudomonas aeruginosa [4]): > 512 µg/mL | inhibition [6]: inactive | inhibition (Pseudomonas aeruginosa [8]): 30% | inhibition at 102.4 µg/mL (Pseudomonas aeruginosa [5]): > 40% | inhibition (Pseudomonas aeruginosa [9]): Active | inhibition at 32 µg/mL (Pseudomonas aeruginosa [10]): > 25.4%
